Test results reported in publication PMC12586182 (Frontiers in Oncology, 2025).

Tests used:
Assay in all cases: Kinase panel profiling at 1 µmol/L (mobility shift assay, Carna)
Type in all cases: biochemical
Conditions in all cases: 1 µmol/L of BTK inhibitor
CaMK2α = biological target: T1, CaMK2α (Homo sapiens, UniProt Q9UQM7)
T1 construct: purchased Carna Biosciences

ZAP70 = biological target: T2, ZAP70 (Homo sapiens, UniProt P43403)
T2 construct: purchased Carna Biosciences
T2 sequence (P43403 1-619): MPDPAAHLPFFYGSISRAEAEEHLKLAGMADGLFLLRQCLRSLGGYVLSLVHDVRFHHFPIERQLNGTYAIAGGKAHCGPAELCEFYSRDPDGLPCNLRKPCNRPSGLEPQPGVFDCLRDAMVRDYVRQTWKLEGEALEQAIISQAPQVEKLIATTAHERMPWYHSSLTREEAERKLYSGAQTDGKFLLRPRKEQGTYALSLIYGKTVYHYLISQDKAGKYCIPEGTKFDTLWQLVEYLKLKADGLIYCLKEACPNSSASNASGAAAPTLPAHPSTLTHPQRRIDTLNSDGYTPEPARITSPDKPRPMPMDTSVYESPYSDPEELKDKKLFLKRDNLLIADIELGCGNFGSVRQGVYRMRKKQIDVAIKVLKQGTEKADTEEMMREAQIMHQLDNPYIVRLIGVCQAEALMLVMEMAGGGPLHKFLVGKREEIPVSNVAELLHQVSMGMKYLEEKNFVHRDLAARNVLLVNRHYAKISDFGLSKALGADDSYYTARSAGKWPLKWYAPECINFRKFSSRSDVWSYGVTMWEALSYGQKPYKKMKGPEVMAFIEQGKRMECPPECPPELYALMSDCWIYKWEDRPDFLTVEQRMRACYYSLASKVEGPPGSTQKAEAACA

AXL = biological target: T3, AXL (Homo sapiens, UniProt P30530)
T3 construct: purchased Carna Biosciences
T3 sequence (P30530 26-894): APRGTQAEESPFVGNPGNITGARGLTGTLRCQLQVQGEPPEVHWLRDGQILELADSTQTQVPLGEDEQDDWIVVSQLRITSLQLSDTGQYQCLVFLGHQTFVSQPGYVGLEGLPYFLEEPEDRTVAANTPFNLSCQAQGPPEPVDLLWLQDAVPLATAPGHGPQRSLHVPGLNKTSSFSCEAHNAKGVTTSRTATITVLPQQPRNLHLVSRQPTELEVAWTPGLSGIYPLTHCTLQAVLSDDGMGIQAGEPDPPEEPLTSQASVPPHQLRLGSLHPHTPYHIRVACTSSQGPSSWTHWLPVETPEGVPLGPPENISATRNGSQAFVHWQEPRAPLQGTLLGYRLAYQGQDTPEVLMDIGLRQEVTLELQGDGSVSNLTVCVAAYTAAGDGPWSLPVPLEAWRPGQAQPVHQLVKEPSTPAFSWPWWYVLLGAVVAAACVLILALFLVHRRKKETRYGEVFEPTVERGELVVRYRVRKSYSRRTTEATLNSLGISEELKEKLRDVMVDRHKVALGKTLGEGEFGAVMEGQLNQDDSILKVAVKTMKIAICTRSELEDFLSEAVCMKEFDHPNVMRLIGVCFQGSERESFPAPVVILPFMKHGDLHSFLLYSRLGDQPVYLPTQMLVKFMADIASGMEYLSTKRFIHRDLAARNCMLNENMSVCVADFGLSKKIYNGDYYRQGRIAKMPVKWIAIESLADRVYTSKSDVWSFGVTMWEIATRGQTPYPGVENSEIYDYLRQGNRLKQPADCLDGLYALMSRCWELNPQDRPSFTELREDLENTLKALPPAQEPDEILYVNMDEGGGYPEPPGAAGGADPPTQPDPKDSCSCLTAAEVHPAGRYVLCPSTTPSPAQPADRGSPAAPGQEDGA

DYRK1A = biological target: T4, DYRK1A (Homo sapiens, UniProt Q13627)
T4 construct: purchased Carna Biosciences

IKKβ = biological target: T5, IKKβ (Homo sapiens, UniProt O14920)
T5 construct: purchased Carna Biosciences
T5 sequence (O14920 1-756): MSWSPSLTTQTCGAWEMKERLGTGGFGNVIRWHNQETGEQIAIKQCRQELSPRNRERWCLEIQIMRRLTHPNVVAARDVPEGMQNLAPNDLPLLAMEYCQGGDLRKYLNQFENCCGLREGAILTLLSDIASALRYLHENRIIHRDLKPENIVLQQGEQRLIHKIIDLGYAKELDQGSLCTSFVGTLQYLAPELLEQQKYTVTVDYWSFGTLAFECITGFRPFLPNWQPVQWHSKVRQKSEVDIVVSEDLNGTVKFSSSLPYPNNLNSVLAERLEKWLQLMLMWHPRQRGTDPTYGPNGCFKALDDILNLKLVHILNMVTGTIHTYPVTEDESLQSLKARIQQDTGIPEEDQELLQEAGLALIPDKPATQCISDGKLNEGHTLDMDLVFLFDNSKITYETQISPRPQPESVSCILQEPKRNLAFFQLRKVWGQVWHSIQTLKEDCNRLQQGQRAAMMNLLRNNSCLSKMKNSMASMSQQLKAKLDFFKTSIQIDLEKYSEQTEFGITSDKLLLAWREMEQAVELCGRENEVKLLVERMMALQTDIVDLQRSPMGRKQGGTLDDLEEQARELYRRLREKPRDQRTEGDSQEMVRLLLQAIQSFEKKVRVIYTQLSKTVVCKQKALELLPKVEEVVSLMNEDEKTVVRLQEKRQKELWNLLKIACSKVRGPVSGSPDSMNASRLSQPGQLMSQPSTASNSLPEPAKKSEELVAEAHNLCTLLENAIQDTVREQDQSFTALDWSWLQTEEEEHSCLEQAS

MSK1 = biological target: T6, MSK1 (Homo sapiens, UniProt O75582)
T6 construct: purchased Carna Biosciences
T6 sequence (O75582 whole entry): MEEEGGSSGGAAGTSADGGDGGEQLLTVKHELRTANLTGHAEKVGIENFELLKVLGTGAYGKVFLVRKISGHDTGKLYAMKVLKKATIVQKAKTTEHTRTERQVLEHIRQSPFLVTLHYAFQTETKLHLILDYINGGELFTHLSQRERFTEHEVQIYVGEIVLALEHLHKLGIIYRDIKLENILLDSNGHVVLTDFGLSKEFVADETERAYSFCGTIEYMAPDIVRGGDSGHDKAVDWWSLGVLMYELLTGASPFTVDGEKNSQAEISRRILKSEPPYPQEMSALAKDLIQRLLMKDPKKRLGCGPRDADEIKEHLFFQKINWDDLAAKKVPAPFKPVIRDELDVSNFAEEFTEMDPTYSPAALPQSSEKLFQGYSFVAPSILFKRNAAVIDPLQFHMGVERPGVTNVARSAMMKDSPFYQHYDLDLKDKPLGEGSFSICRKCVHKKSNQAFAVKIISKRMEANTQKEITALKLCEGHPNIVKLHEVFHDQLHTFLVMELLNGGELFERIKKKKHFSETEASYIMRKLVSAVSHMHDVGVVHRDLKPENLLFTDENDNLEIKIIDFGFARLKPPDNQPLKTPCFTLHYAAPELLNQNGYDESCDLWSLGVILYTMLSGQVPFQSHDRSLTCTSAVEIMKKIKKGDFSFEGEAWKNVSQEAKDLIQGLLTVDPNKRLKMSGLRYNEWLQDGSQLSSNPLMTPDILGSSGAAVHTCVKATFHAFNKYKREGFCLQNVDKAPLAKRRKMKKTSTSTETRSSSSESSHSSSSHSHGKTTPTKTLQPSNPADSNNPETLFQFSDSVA

PDHK2 = biological target: T7, PDHK2 (Homo sapiens, UniProt Q15119)
T7 construct: purchased Carna Biosciences

AurA = biological target: T8, AurA (Homo sapiens, UniProt O14965)
T8 construct: purchased Carna Biosciences
T8 sequence (O14965 1-403): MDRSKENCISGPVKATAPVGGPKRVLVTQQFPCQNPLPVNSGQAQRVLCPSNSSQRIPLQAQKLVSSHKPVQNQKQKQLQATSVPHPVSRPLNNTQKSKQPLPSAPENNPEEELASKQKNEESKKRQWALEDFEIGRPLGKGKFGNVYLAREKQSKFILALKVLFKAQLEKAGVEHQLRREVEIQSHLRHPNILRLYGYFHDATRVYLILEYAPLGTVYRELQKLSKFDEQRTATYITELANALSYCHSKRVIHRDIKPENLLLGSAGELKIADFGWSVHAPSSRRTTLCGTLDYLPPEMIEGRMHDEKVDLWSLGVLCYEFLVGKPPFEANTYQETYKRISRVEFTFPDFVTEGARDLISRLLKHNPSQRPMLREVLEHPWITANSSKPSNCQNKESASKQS

T1 sequence (Q9UQM7 whole entry): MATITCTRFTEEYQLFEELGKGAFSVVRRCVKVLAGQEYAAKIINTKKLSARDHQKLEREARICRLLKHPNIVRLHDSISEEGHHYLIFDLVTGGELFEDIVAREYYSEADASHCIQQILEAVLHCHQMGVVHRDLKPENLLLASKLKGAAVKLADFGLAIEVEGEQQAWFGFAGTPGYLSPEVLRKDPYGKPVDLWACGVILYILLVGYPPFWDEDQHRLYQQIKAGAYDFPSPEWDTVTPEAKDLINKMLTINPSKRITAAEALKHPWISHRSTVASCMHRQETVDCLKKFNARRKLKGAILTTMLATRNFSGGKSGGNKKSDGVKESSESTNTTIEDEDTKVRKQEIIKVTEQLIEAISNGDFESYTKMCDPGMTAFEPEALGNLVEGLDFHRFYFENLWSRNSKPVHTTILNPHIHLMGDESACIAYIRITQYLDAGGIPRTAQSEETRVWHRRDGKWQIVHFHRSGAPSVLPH

Row | SMILES | Percentage inhibition of kinase enzyme activity (CaMK2α) | Percentage inhibition of kinase enzyme activity (ZAP70) | Percentage inhibition of kinase enzyme activity (AXL) | Percentage inhibition of kinase enzyme activity (DYRK1A) | Percentage inhibition of kinase enzyme activity (IKKβ) | Percentage inhibition of kinase enzyme activity (MSK1) | Percentage inhibition of kinase enzyme activity (PDHK2) | Percentage inhibition of kinase enzyme activity (AurA)
1 | CC#CC(=O)N1CCC[C@H]1c1nc(-c2ccc(C(=O)Nc3ccccn3)cc2)c2c(N)nccn12 [acalabrutinib] | -3.43% | -1.53% | -0.46% | -4.57% | -6.98% | -7.68% | 0.16% | 2.34%
2 | C=CC(=O)N1CCC[C@@H](n2nc(-c3ccc(Oc4ccccc4)cc3)c3c(N)ncnc32)C1 [ibrutinib] | -1.35% | -4.51% | 8.97% | -3.54% | -0.35% | -1.18% | -1.08% | 29.84%
3 | O=C(c1ccc(Oc2ccccc2)cc1Cl)c1c[nH]c2ncnc(N[C@@H]3CC[C@@H](CO)OC3)c12 [nemtabrutinib] | 2.91% | 8.61% | 84.52% | -2.18% | -1.18% | 11.30% | 4.18% | 77.82%
4 | C=CC(=O)N1CCC([C@@H]2CCNc3c(C(N)=O)c(-c4ccc(Oc5ccccc5)cc4)nn32)CC1 [zanubrutinib] | – | – | – | – | – | 0.57% | – | –
5 | COc1ccc(F)cc1C(=O)NCc1ccc(-c2nn([C@@H](C)C(F)(F)F)c(N)c2C(N)=O)cc1 [pirtobrutinib] | -0.99% | -3.75% | -1.48% | -2.78% | 0.58% | 4.32% | 0.06% | 27.17%
